{"source": "patent US8877938B2", "about": "“Compounds containing S-N-valeryl-N-{[2′-(1H-tetrazole-5-yl)-biphenyl-4-yl]-methyl}-valine and (2R,4S)-5-biphenyl-4-yl-4-(3-carboxy-propionylamino)-2-methyl-pentanoic acid ethyl ester moieties and cations” (Novartis Pharmaceuticals Corporation, priority 2005, dated 2014)", "key": {"[1]": {"test_system": "double-transgenic rats (dTGRs) that overexpress both human renin and its substrate, human angiotensinogen", "description": "(§1) Representative studies are carried out with trisodium [3-((1S,3R)-1-biphenyl-4-ylmethyl-3-ethoxycarbonyl-1-butylcarbamoyl)propionate-(S)-3′-methyl-2′- pentanoyl{2″-(tetrazol-5-ylate)biphenyl-4′-ylmethyl}amino)butyrate] hemipentahydrate, e.g. applying the following methodology: • The antihypertensive and neutral endopeptidase 24.11 (NEP)-inhibitory activities of trisodium [3-((1S,3R)-1-biphenyl-4-ylmethyl-3-ethoxycarbonyl-1-butylcarbamoyl)propionate-(S)-3′-methyl-2′-(pentanoyl{2″-tetrazol-5-ylate)biphenyl-4′-ylmethyl}amino)butyrate] hemipentahydrate is assessed in conscious rats. The blood pressure-lowering effect is evaluated in double-transgenic rats (dTGRs) that overexpress both human renin and its substrate, human angiotensinogen (Bohlender, et al, High human renin hypertension in transgenic rats. Hypertension; 29(1 Pt 2):428-34, 1997). […] The NEP-inhibitory effect of trisodium [3-((1 S,3R)-1-biphenyl-4-ylmethyl-3-ethoxycarbonyl-1-butylcarbamoyl)propionate-(S)-3′-methyl-2′-(pentanoyl{2″-(tetrazol-5-ylate)biphenyl-4′-ylmethyl}amino)butyrate] hemipentahydrate is determined in conscious Sprague-Dawley rats infused with exogenous atrial natriuretic peptide (ANP). Potentiation of plasma ANP levels is used as an index of NEP inhibition in vivo. In both models, trisodium [3-((1S,3R)-1-biphenyl-4-ylmethyl-3-ethoxycarbonyl-1-butylcarbamoyl)propionate-(S)-3′-methyl-2′-(pentanoyl{2″-(tetrazol-5-ylate)biphenyl-4′-ylmethyl}amino)butyrate] hemipentahydrate is administered orally as a powder in gelatin mini capsules. […] Antihypertensive Effect In Vivo\nThe dTGRs are instrumented with radiotelemetry transmitters for continuous measurement of arterial blood pressure and heart rate. Animals are randomly assigned to vehicle (empty capsule) or treatment (at 2, 6, 20 or 60 mg/kg, p.o.) groups."}, "[2]": {"molecular_target": "neutral endopeptidase 24.11 (NEP) (Rattus norvegicus, UniProt P07861)", "sequence (P07861 whole entry, the tested form may be a part)": "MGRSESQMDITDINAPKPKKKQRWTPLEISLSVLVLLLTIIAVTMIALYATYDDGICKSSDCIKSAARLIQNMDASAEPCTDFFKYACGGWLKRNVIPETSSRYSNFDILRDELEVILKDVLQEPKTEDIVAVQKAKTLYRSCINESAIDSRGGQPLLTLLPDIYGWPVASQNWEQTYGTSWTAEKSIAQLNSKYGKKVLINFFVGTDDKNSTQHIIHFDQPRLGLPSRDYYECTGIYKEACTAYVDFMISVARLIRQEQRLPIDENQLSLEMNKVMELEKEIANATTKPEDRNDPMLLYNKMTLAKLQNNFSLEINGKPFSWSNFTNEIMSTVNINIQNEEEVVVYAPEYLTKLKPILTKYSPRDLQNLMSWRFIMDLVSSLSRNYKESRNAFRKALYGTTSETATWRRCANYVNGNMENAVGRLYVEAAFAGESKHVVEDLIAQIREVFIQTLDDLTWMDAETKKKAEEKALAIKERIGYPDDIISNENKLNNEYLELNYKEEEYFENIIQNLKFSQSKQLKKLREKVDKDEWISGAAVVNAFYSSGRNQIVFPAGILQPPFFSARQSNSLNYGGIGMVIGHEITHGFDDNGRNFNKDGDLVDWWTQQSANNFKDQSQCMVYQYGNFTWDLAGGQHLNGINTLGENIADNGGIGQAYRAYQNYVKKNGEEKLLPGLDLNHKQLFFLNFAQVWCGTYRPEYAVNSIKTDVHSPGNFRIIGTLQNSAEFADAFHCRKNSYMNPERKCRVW", "conditions": "for NEP inhibition in vivo, as reflected by potentiation of plasma ANPir: oral administration, conscious Sprague-Dawley rats infused with exogenous ANP", "description": "as §1\nRat ANP(1-28) is infused intravenously at a rate of 450 ng/kg/min in conscious, chronically cannulated, male Sprague-Dawley rats. After one hour of infusion, rats are randomly assigned to one of six groups: untreated control, vehicle (empty capsule) control, or one of four doses of drug (2, 6, 20, or 60 mg/kg, p.o.). ANP infusion is continued for an additional eight hours. Blood samples are collected for measuring plasma ANPir by a commercial enzyme immunoassay kit at −60 min (i.e., before initiating ANP infusion), −30 min (after 30 min of ANP infusion), 0 min (“baseline”; after 60 min of ANP infusion but before dosing with drug or its vehicle), and at 0.25, 0.5,1, 2, 3, 4, 5, 6, 7, and 8 hr post-dosing."}, "[3]": {"conditions": "2, 6, 20 or 60 mg/kg, p.o., rat ANP(1-28) infused i.v. at 450 ng/kg/min"}}, "note": "Where two headings read alike, the source gives them in different places."}
{"substance": "trisodium [3-((1S,3R)-1-biphenyl-4-ylmethyl-3-ethoxycarbonyl-1-butylcarbamoyl)propionate-(S)-3′-methyl-2′-(pentanoyl{2″-(tetrazol-5-ylate)biphenyl-4′-ylmethyl}amino)butyrate] hemipentahydrate", "values": [{"measurement": "mean arterial pressure (MAP)", "setting": "[1]; 2, 6, 20 or 60 mg/kg, p.o., baseline 24-hr MAP approximately 170-180 mmHg", "result": "dose-dependently reduces MAP"}, {"measurement": "antihypertensive effect", "setting": "[1]; oral administration, conscious dTGRs, a rat model of fulminant hypertension", "result": "dose-dependent and long-lasting antihypertensive effect"}, {"measurement": "MAP, difference from vehicle controls", "setting": "[1]; three highest doses (of 2, 6, 20, 60 mg/kg, p.o.)", "result": "significantly different from the vehicle controls"}, {"measurement": "plasma ANPir", "setting": "[2]; [3]", "result": "dose-dependently augments ANPir"}, {"measurement": "time to augmentation of plasma ANPir after dosing", "setting": "[2]; [3]", "result": "≤ 15", "unit": "min"}, {"measurement": "NEP inhibition in vivo, as reflected by potentiation of plasma ANPir", "setting": "[2]", "result": "rapidly and dose-dependently inhibits NEP with a long duration of action"}, {"measurement": "NEP inhibition in vivo, as reflected by potentiation of plasma ANPir", "setting": "[2]; listed as LCZ696", "result": "rapidly and dose-dependently inhibited NEP with a long duration of action"}]}
